Reference: patent US11535621B2, “Heterobicyclic amides as inhibitors of CD38” (Ribon Therapeutics, Inc., priority 2019, dated 2022)

Target: Human CD38 (Homo sapiens (Human), UniProt P28907)
Assay: CD38 enzyme assay
Type: biochemical
Settings: 2 nM CD38, NAD+ substrate, absorbance at 405 nm
Source text: [formula] where SUBcmpd is the subtracted value for the individual compound treated well, SUBmin is the average of the subtracted values of the 4-(((1r,4r)-4-(2-methoxyethoxy)cyclohexyl)amino)-1-methyl-6-(thiazol-5-yl)quinolin-2(1H)-one positive control wells and SUBmax is the average of the subtracted values of the DMSO negative control wells.
The % inhibition values were plotted as a function of compound concentration and the following 4-parameter fit was applied to derive the IC50 values:
[formula] where top and bottom are normally allowed to float, but may be fixed at 100 or 0 respectively in a 3-parameter fit. The Hill Coefficient is normally allowed to float but may also be fixed at 1 in a 3-parameter fit. Y is the % inhibition and X is the compound concentration.

Chain of Human CD38 (P28907 whole entry): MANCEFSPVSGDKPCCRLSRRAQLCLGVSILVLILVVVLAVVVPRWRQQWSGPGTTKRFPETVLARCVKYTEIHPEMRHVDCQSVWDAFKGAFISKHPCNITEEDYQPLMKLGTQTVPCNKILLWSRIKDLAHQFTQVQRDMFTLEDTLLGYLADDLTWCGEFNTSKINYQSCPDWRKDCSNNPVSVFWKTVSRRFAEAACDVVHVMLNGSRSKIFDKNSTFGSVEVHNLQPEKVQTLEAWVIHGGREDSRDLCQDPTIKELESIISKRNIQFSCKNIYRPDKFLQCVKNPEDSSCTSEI

Row | IC50 [nM] | Structure (SMILES)
1 | 10 to 100 | COCCO[C@H]1CC[C@H](NC(=O)c2nc(-n3ccnc3)nc3ccn(C)c23)CC1 [Example 22, 2-(1H-Imidazol-1-yl)-N-((1r,4r)-4-(2-methoxyethoxy)cyclohexyl)-5-methyl-5H-pyrrolo[3,2-d]pyrimidine-4-carboxamide]
2 | 100 to 1000 | COCCO[C@H]1CC[C@H](NC(=O)c2cc(-n3ccnc3)cc3cnsc23)CC1 [Example 41, 5-(1H-Imidazol-1-yl)-N-((1r,4r)-4-(2-methoxyethoxy)cyclohexyl)benzo[d]isothiazole-7-carboxamide]
3 | 10 to 100 | C[C@]1(O)CC[C@H](NC(=O)c2nc(-n3ccnc3)nc3cc[nH]c23)CC1 [Example 176]
4 | 10 to 100 | O=C(N[C@H]1CC[C@@H](O)CC1)c1nc(-n2ccnc2)nc2cc[nH]c12 [Example 186]
5 | 100 to 1000 | COCCN1CCC(NC(=O)c2nc(-n3ccnc3)nc3cc[nH]c23)CC1 [Example 53, 2-(1H-Imidazol-1-yl)-N-(1-(2-methoxyethyl)piperidin-4-yl)-5H-pyrrolo[3,2-d]pyrimidine-4-carboxamide]
6 | 10 to 100 | O=C(Nc1ccc(N2CCC(N3CCOCC3)CC2)nc1)c1nc(-n2ccnc2)nc2cc[nH]c12 [Example 158]
7 | 10 to 100 | COCCO[C@H]1CC[C@H](NC(=O)c2cc(-n3ccnc3)cc3cc(CN)[nH]c23)CC1 [Example 19, 2-(Aminomethyl)-5-(1H-imidazol-1-yl)-N-((1r,4r)-4-(2-methoxyethoxy)cyclohexyl)-1H-indole-7-carboxamide]
8 | 10 to 100 | O=C(N[C@H]1CC[C@H](N2CC(C(F)(F)F)C2)CC1)c1nc(-n2ccnc2)nc2cn[nH]c12 [Example 241, 5-(1H-imidazol-1-yl)-N-((1r,4r)-4-(3-(trifluoromethyl)azetidin-1-yl)cyclohexyl)-1H-pyrazolo[4,3-d]pyrimidine-7-carboxamide]
9 | 10 to 100 | O=C(N[C@H]1CC[C@H](NCCC(F)(F)F)CC1)c1nc(-n2ccnc2)cc2cn[nH]c12 [Example 189, 5-(1H-imidazol-1-yl)-N-((1r,4r)-4-((3,3,3-trifluoropropyl)amino)cyclohexyl)-1H-pyrazolo[3,4-c]pyridine-7-carboxamide]
10 | 100 to 1000 | CC1(F)CN([C@H]2CC[C@@H](NC(=O)c3nc(-n4ccnc4)nc4cn[nH]c34)CC2)C1 [Example 256, N-((1s,4s)-4-(3-fluoro-3-methylazetidin-1-yl)cyclohexyl)-5-(1H-imidazol-1-yl)-1H-pyrazolo[4,3-d]pyrimidine-7-carboxamide]
11 | < 10 | Cn1ccc(NC(=O)c2nc(-n3ccnc3)nc3cc[nH]c23)n1 [Example 94, 2-(1H-Imidazol-1-yl)-N-(1-methyl-1H-pyrazol-3-yl)-5H-pyrrolo[3,2-d]pyrimidine-4-carboxamide]
12 | < 10 | O=C(NC1CCC(F)(F)CC1)c1nc(-n2ccnc2)nc2ccsc12 [Example 149]
13 | < 10 | COCCOc1ccc(NC(=O)c2nc(-n3ccnc3)nc3cc[nH]c23)cc1 [Example 63, 2-(1H-Imidazol-1-yl)-N-(4-(2-methoxyethoxy)phenyl)-5H-pyrrolo[3,2-d]pyrimidine-4-carboxamide]
14 | < 10 | O=C(Nc1cc[nH]n1)c1nc(-n2ccnc2)nc2cc[nH]c12 [Example 86, 2-(1H-Imidazol-1-yl)-N-(1H-pyrazol-3-yl)-5H-pyrrolo[3,2-d]pyrimidine-4-carboxamide]
15 | 10 to 100 | CC(C)(O)[C@H]1CC[C@H](NC(=O)c2nc(-n3ccnc3)nc3cc[nH]c23)CC1 [Example 139]
16 | 10 to 100 | CN(C)CCO[C@H]1CC[C@H](NC(=O)c2nc(-n3ccnc3)nc3cc[nH]c23)CC1 [Example 72, N-((1r,4r)-4-(2-(Dimethylamino)ethoxy)cyclohexyl)-2-(1H-imidazol-1-yl)-5H-pyrrolo[3,2-d]pyrimidine-4-carboxamide]
17 | 10 to 100 | O=C(N[C@H]1CC[C@H](N2CC(F)(F)C2)CC1)c1nc(-n2ccnc2)cc2cn[nH]c12 [Example 227, N-((1r,4r)-4-(3,3-difluoroazetidin-1-yl)cyclohexyl)-5-(1H-imidazol-1-yl)-1H-pyrazolo[3,4-c]pyridine-7-carboxamide]
18 | > 1000 | O=C(NCc1c(F)cccc1C(F)(F)F)c1cc(-n2ccnc2)cc2nc[nH]c12 [Example 2, N-(2-Fluoro-6-(trifluoromethyl)benzyl)-5-(1H-imidazol-1-yl)-1H-benzo[d]imidazole-7-carboxamide]

Row | IC50 [nM] | Structure (SMILES)
19 | 10 to 100 | CN(CC(F)(F)F)[C@H]1CC[C@H](NC(=O)c2nc(-n3ccnc3)cc3cn[nH]c23)CC1 [Example 218, 5-(1H-imidazol-1-yl)-N-((1r,4r)-4-(methyl(2,2,2-trifluoroethyl)amino)cyclohexyl)-1H-pyrazolo[3,4-c]pyridine-7-carboxamide]
20 | 10 to 100 | CC(F)(F)CN[C@H]1CC[C@H](NC(=O)c2nc(-n3ccnc3)cc3ccsc23)CC1 [Example 262, N-((1r,4r)-4-((2,2-difluoropropyl)amino)cyclohexyl)-5-(1H-imidazol-1-yl)thieno[2,3-c]pyridine-7-carboxamide]
21 | < 10 | CO[C@H]1CC[C@H](NC(=O)c2nc(-n3ccnc3)nc3ccsc23)CC1 [Example 136]
22 | 10 to 100 | COCCO[C@H]1CC[C@H](NC(=O)c2nc(-c3cncs3)nc3cc[nH]c23)CC1 [Example 32, N-((1r,4r)-4-(2-Methoxyethoxy)cyclohexyl)-2-(thiazol-5-yl)-5H-pyrrolo[3,2-d]pyrimidine-4-carboxamide]
23 | > 1000 | COCCO[C@H]1CC[C@H](NC(=O)c2nc(-c3cncs3)cc3nc[nH]c23)CC1 [Example 47, N-((1r,4r)-4-(2-Methoxyethoxy)cyclohexyl)-6-(thiazol-5-yl)-3H-imidazo[4,5-c]pyridine-4-carboxamide]
24 | 10 to 100 | CC1(NC(=O)c2nc(-n3ccnc3)nc3cc[nH]c23)CCOCC1 [Example 135]
25 | 10 to 100 | O=C(NCc1c(F)cccc1C(F)(F)F)c1nc(-n2ccnc2)nc2ccsc12 [Example 49, N-(2-Fluoro-6-(trifluoromethyl)benzyl)-2-(1H-imidazol-1-yl)thieno[3,2-d]pyrimidine-4-carboxamide]
26 | 100 to 1000 | O=C(N[C@H]1CC[C@@H](NCCC(F)(F)F)CC1)c1nc(-n2ccnc2)cc2cn[nH]c12 [Example 188, 5-(1H-imidazol-1-yl)-N-((1s,4s)-4-((3,3,3-trifluoropropyl)amino)cyclohexyl)-1H-pyrazolo[3,4-c]pyridine-7-carboxamide]
27 | < 10 | O=C(N[C@H]1CC[C@H](NCC(F)F)CC1)c1nc(-n2ccnc2)cc2ccsc12 [Example 261, N-((1r,4r)-4-((2,2-difluoroethyl)amino)cyclohexyl)-5-(1H-imidazol-1-yl)thieno[2,3-c]pyridine-7-carboxamide]
28 | 10 to 100 | COCCN(C)[C@H]1CC[C@H](NC(=O)c2nc(-n3ccnc3)nc3cc[nH]c23)CC1 [Example 57, 2-(1H-Imidazol-1-yl)-N-((1r,4r)-4-((2-methoxyethyl)(methyl)amino)cyclohexyl)-5H-pyrrolo[3,2-d]pyrimidine-4-carboxamide]
29 | < 10 | O=C(N[C@H]1CC[C@H](C2(O)CC2)CC1)c1nc(-n2ccnc2)nc2cn[nH]c12 [Example 238, N-((1r,4r)-4-(1-hydroxycyclopropyl)cyclohexyl)-5-(1H-imidazol-1-yl)-1H-pyrazolo[4,3-d]pyrimidine-7-carboxamide]
30 | > 1000 | COCCO[C@H]1CC[C@H](NC(=O)c2nc(-c3c[nH]cn3)nc3cc[nH]c23)CC1 [Example 38, 2-(1H-Imidazol-4-yl)-N-((1r,4r)-4-(2-methoxyethoxy)cyclohexyl)-5H-pyrrolo[3,2-d]pyrimidine-4-carboxamide]
31 | 100 to 1000 | COCCO[C@H]1CC[C@H](NC(=O)c2cc(-n3ccnc3)cc3nc(C)[nH]c23)CC1 [Example 30, 5-(1H-imidazol-1-yl)-N-((1r,4r)-4-(2-methoxyethoxy)cyclohexyl)-2-methyl-1H-benzo[d]imidazole-7-carboxamide]
32 | 10 to 100 | C[C@H](O)[C@H]1CC[C@H](NC(=O)c2nc(-n3ccnc3)nc3ccsc23)CC1 (single isomer, unassigned) [Example 267b]
33 | < 10 | N#CC[C@H]1CC[C@H](NC(=O)c2nc(-n3ccnc3)nc3cc[nH]c23)CC1 [Example 185]
34 | 10 to 100 | COCCO[C@H]1CC[C@H](NC(=O)c2nc(-n3ccnc3)cc3nc[nH]c23)CC1 [Example 26, 6-(1H-Imidazol-1-yl)-N-((1r,4r)-4-(2-methoxyethoxy)cyclohexyl)-3H-imidazo[4,5-c]pyridine-4-carboxamide]
35 | 10 to 100 | O=C(N[C@H]1CC[C@H](N2CCC(F)(F)C2)CC1)c1nc(-n2ccnc2)cc2cn[nH]c12 [Example 232, N-((1r,4r)-4-(3,3-difluoropyrrolidin-1-yl)cyclohexyl)-5-(1H-imidazol-1-yl)-1H-pyrazolo[3,4-c]pyridine-7-carboxamide]
36 | < 10 | O=C(N[C@H]1CC[C@H](O)CC1)c1nc(-n2ccnc2)nc2cc[nH]c12 [Example 177]

Row | Structure (SMILES) | IC50 [nM]
37 | C[C@H](O)[C@H]1CC[C@H](NC(=O)c2nc(-n3ccnc3)cc3cn[nH]c23)CC1 [Example 192a, N-((1S,4r)-4-((S)-1-hydroxyethyl)cyclohexyl)-5-(1H-imidazol-1-yl)-1H-pyrazolo[3,4-c]pyridine-7-carboxamide] | < 10
38 | C[C@@H](O)[C@H]1CC[C@H](NC(=O)c2nc(-n3ccnc3)cc3cn[nH]c23)CC1 [Example 192b, N-((1R,4r)-4-((R)-1-hydroxyethyl)cyclohexyl)-5-(1H-imidazol-1-yl)-1H-pyrazolo[3,4-c]pyridine-7-carboxamide] | < 10
39 | C[C@H](O)[C@H]1CC[C@H](NC(=O)c2nc(-n3ccnc3)cc3ccsc23)CC1 [Example 264b, N-((1S,4r)-4-((S)-1-hydroxyethyl)cyclohexyl)-5-(1H-imidazol-1-yl)thieno[2,3-c]pyridine-7-carboxamide] | 10 to 100
